Measured values published in patent publication US10493046B2, “5-hydroxytryptamine 1B receptor-stimulating agent for use as a promoter of satellite cells self-renewal and/or differentiation” (INSTITUT PASTEUR, priority 2015, dated 2019).

Tests used:
Tibialis anterior = test: Muscle regeneration after notexin injury of tibialis anterior; assay type: in vivo, mouse
Method: Animals were anesthetized with ketamine (Imalgene1000 100 mg/Kg Merial) and Xylazine (Rompun2% 20 mg/Kg Bayer) prior to injury. Animals were hydrated and treated with analgesic (Buprenorphin Axience 0.3 mg/kg) twice a day for 4 d following injury. For the injury, mice were anesthetized as previously described and 10 μl of 12.5 μg/ml Notexin (Lotaxan) was injected in the Tibialis anterior. All protocols were reviewed by the Institut Pasteur, the competent authority, for compliance with the French and European regulations on Animal Welfare and with Public Health Service recommendations. This project has been reviewed and approved (#2013-0044) by the Institut Pasteur ethic committee (C2EA 89-CETEA).
Tibialis anterior (TA) was carefully dissected and snap frozen in liquid-nitrogen-cooled isopentane for a few minutes and stored at −80° C. prior to cryosectioning (10 μm sections). Sections were kept at room temperature overnight before staining. Sections were then rehydrated in PBS for 10 minutes and fixed in 10% formalin for 3 minutes. The sections were then routinely stained with haematoxylin and eosin (HE) using an automated stain machine or manually with red sirius.
Immunostaining was performed on cryosections fixed with 4% paraformaldehyde (PFA EMS#15710) in cold PBS, permeabilized with 0.5% Triton X-100 20 min at room temperature, washed, and blocked with 10% BSA for 30 min. Sections were incubated with primary antibodies overnight at 4° C. (see Table 1 below) and with Alexa-conjugated secondary antibodies 1/250 and Hoechst for 45 minutes. Sections were then analysed using an automated axioscan (Zeiss) or inverted Observer.Z1 Apotome (Zeiss). For apoptosis assessment, cells were collected in 2% serum, spun on polyD-lysine (Sigma-Aldrich#P6407), and immediately fixed with PFA 4%.
For image analysis (fibrosis quantification), ImageJ 1.46r software was using between 10 different photos randomly taken per section and 3 sections minimum per experimental group. The pictures were converted in a binary image and the pixel values then collected. For fibre size, the sections were immunostained with rabbit anti Laminin (Sigma-Aldrich #L9393) diluted at 1/200, overnight at 4° C. Secondary Donkey ant Rabbit 488 (DL488 JacksonImmuno #711486152) were used at 1/200 45 minutes at room temperature. The fibre perimeter was done automatically by using Pixcavator® software.

satellite cells = test: FACS-sorted satellite cells in vitro, compound added to the culture medium; assay type: cell-based, mouse
Method: Muscle dissection was done as previously described in cold DMEM. Muscles were then chopped with small scissors and put in a 50 ml Falcon tube with collagenase 0.1% and trypsin 0.25% at 37° C. with gentle agitation. After 20 minutes, the supernatant was collected in 20% serum placed on ice, and the collagenase/trypsin solution was added to continue the digestion. Once muscle was completely digested, the solution was filtrated using 40 μm cell strainers. Satellite cells were cultured in 1:1 DMEM-Glutamax (Gibco#41965-039):MCDB201 (Sigma#M6770) containing 20% serum FBS (Biowest S1860). Medium was filtered using 0.22 μm filters. Cells were plated on Matrigel coating (BD Biosciences#354234) and kept in an incubator (37° C., 5% CO2). […] The thus-obtained supernatant replaced FBS in the culture medium; the rest of the medium was unchanged.
Satellite cells were isolated from Tg:Pax7nGFP mice and cells were plated at 2.000 cells per cm^2. After overnight, vortioxetine was added at 10 μM. […] 14 days post-plating, a higher number of reserve cells (Pax7 positive cells that are quiescent in vitro) were detected in the vortioxetine-treated cells (9%±0.7) than in the PBS (3.5%±0.9, p=0.01), and when GR127935 inhibitor was added in vitro the number of reserve cells dropped (3.5%±0.9, p=0.9) (FIG. 11c). […] This difference in expression was lost when SC were plated with the GR127935 5-HT1 BR inhibitor (p=0.4) (FIGS. 11c-e). The positive effects of vortioxetine were lost when GR127935 was added in vitro together with vortioxetine (FIGS. 11c-e). These effects were however persistent when adding the 5-HT2 BR antagonist (FIGS. 11c-e). This means that the positive effects observed when plating vortioxetine in vitro with satellite cells is mediated via the 5HT1B receptor and not 5HT2B.
To test whether, 2 derivatives of vortioxetine, namely histidine-vortioxetine and pyrrolidinium-vortioxetine, could have similar or improved effect compared to the unmodified vortioxetine, the in vitro approach as described in section 2.2.3 above was used and the differentiation cascade of satellite cells was investigated by assessing the expression pattern of Pax7 (a marker of stemness and quiescence) and Myogenin (MyoG, a marker of differentiation) as described above in section 2.2.3. To do so, satellite cells from Tg:Pax7-nGFP were isolated by FACS and plated at 2.000 cells per cm^2 (seeded overnight). The following day, the vortioxetine, its derivatives, or the control PBS was added at 10 μM and the cells were fixed at the indicated time points.

Mdx mice = test: Grip strength test in mdx mice; assay type: in vivo, mouse; conditions: fluoxetine treated mdx mice, 6 weeks; 4 limbs
Method: The grip strength test is a non-invasive method designed to evaluate mouse muscle force in vivo. A grip meter (Bio-GT3, BIOSEB), attached to a force transducer, measures the peak force generated. […] Five trials were conducted and, before statistical analysis, a mean value was calculated for each mouse using the tree median data. Results are expressed as the result of tree peak forces (in g), normalized to the body weight (in g).
(§1) This was confirmed on soleus muscle (data not shown).

cytokines = test: Plasmatic cytokine levels by Luminex after notexin injury; assay type: in vivo, mouse; conditions: injured with fluoxetine treatment
Description: Snap frozen plasma samples (n=6 per condition) were thawed out, and supernatant was processed for Luminex® multiple cytokine and chemokine analysis (Bio-Plex® Pro™ Mouse Cytokine Standard 23-Plex, Group I and Standard 9-Plex, Group II). Normalization was done by sample weight of frozen muscle.

[1] = test system: extensor digitorum longus (edl) fibers; test: Tension of isolated muscle fibers of mdx mice; assay type: in vivo, mouse; conditions: fluoxetine treated mdx mice
Method: Small bundles of two to five fibers were manually isolated from the muscles as previously described. Chemical skinning was carried out using Triton X-100. Skinned fibers were mounted in the Displacement Measuring System KD 2300 (model 0.5 SU, Kaman Instrumentation, Colorado Springs, Colo., USA). To perform force measurements, skinned fiber preparations were incubated for 1 h in relaxing solution (pCa 9.0, low calcium content) containing 1% Triton X-100 (v/v) to solubilize the sarcolemma and the sarcoplasmic reticulum membranes, and were subsequently washed several times in relaxing solution without detergent. Fibres were adjusted to slack length and then stretched progressively until the tension developed became maximal. Isometric tension was recorded continuously using a chart recorder (model 1200, Linear, Reno, Nev., USA). The tension obtained was normalized to fibre cross-sectional area.
as §1

primary human myoblasts = test: Primary human myoblasts plated in plasma from treated mice; assay type: cell-based; conditions: plasma from fluoxetine-treated mice
[2] = notexin injury after fluoxetine treatment

COc1ccc(NC(=O)c2ccc(-c3ccc(-c4noc(C)n4)cc3C)cc2)cc1N1CCN(C)CC1 [GR127935]
Effect of the antagonist on the beneficial effects of fluoxetine after injury (Tibialis anterior; antagonist together with fluoxetine, SC, differentiating cells, fiber size, calcium deposits, fibrosis, Gr1 and F4/80 cells): suppressed the beneficial effects of fluoxetine treatment | Effect of GR127935 on the beneficial effects of vortioxetine after injury (Tibialis anterior; vortioxetine 12 days-treatment plus GR127935, SC, differentiating cells, fiber size, calcium deposits, fibrosis, Gr1 and F4/80 cells): repressed the beneficial effects of the vortioxetine 12 days-treatment | Positive effects of vortioxetine (incl. MyoG expression difference) when GR127935 added (satellite cells; GR127935 added in vitro together with vortioxetine 10 μM): lost | Pax7 positive cells 4 days post-plating (satellite cells; vortioxetine 10 μM incubated with the GR127935 inhibitor): 25.5% | Reserve cells (quiescent Pax7 positive cells) 14 days post-plating (satellite cells; vortioxetine 10 μM, GR127935 inhibitor added in vitro): 3.5%

CNCCC(Oc1ccc(C(F)(F)F)cc1)c1ccccc1 (stereo not drawn) [fluoxetine]
Total muscle force increase (Mdx mice): 56% | Calcium deposits 14 days post-injury (Tibialis anterior; [2]): 3.2±3 per mm^2 | Differentiating (Myogenin+) cells 4 days post-injury vs placebo (Tibialis anterior; [2]): more cells were already differentiating | Endomysial fibrosis 14 days post-injury (Tibialis anterior; [2]): 2.2±0.7 % of total muscle area | F4/80 inflammatory cells 14 days post-injury (Tibialis anterior; [2]): 4.7±2.7 cells per section | Gr1+ inflammatory cells 14 days post-injury (Tibialis anterior; [2]): 4.1±2.6 cells per section | Number of fibers 14 days post-injury vs placebo (Tibialis anterior; [2]): remained the same | Regenerating fiber size 14 days post-injury (Tibialis anterior; [2]): 129±12.6 μm^2 | Number of SC 4 days post-injury (Tibialis anterior; notexin injury after fluoxetine treatment, Tg:Pax7nGFP mice): 459±283 per mm^2 | Number of vessels 28 days post-injury vs placebo (Tibialis anterior; notexin injury after fluoxetine treatment, p=0.036): higher | Number of SC 28 days post-injury vs placebo (Tibialis anterior; notexin injury after fluoxetine treatment, p=0.076): higher | Number of SC per TA after 3 rounds of injury (Tibialis anterior; several rounds of injury after fluoxetine treatment): remained constant | IL-6 level after injury (cytokines): 2459 ± 920 pg/µL | Force increase of isolated single fibers of extensor digitorum longus (edl) [1]: 45% | Differentiation 4 days post-plating vs placebo plasma (primary human myoblasts): faster differentiation | Self-renewal of the cells 14 days post-plating vs placebo plasma (primary human myoblasts): higher self-renewal
